Reference: patent US20030187007A1, “Inhibitors of protein kinase for the treatment of disease” (priority 2001, published 2003)
Where a name gives a salt, the structure may show the parent alone.

Columns and labels:
[1] = biological target: CDK2 complexed with cyclin A (Homo sapiens, UniProt P24941); assay: Cyclin dependent kinase activity assay, phosphorylation of synthetic peptide PKTPKKAKKLRRR; type: biochemical; settings: 0.1 mM ATP, read-out: CDK 2 Activity*
Description: (§1) The assay of cyclin dependent kinase activity was determined by monitoring the phosphorylation of a synthetic peptide, PKTPKKAKKLRRR. The assay mixture contained 0.1 mM cold ATP, ^33P-γ-ATP (2000-4000 cpm/μL), 0.1 mM peptide, 1 mM DTT, and 10 mM MgCl2 in 100 mM HEPES buffer pH 7.4. The assay mixture, along with inhibitor and CDK enzyme (0.3-0.4 U/mL; either CDK5 complexed with p25, CDK2 complexed with complexed with cyclin A), was mixed together in a microtiter plate in a final volume of 40 μL, sealed and incubated for 2 hours at 30° C. Following incubation, a 15 μL aliquot was added to a Whatman P81 filtration plate containing 100 μL 0.5% phosphoric acid. This mixture was allowed to stand for 5 minutes prior to filtration on a vacuum manifold. The filter plate was washed with 5 successive additions of 300 μL 0.5% phosphoric acid. The filtration plate was air dried for 10 minutes before sealing the bottom. After addition of scintillation fluid to the sealed plate, phosphorylated peptide was quantified in a scintillation counter.

CDK5 complexed with p25 = CDK5 complexed with p25 (Homo sapiens, UniProt Q00535); assay: as above; type: biochemical; settings: CDK5 complexed with p25, 0.1 mM ATP; read-out: CDK 5 Activity*
CDK5 complexed with p25, sequence (Q00535 whole entry): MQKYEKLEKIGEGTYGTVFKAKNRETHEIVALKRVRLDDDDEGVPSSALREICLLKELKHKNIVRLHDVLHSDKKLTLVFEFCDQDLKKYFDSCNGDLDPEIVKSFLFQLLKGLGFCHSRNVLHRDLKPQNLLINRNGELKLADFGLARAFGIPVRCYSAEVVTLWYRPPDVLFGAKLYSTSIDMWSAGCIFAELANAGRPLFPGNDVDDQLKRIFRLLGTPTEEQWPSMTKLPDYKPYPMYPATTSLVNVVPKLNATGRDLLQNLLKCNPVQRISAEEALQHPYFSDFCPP
CDK5 complexed with p25, sequence (Q15078 99-307 partner limits assumed): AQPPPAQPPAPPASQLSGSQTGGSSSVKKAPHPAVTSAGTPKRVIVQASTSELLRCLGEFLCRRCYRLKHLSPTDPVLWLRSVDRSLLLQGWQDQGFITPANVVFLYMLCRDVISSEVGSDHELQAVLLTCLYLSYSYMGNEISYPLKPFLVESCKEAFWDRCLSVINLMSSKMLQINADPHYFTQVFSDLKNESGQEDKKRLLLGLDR
Description: as §1

NC(=S)N/N=C/c1cc(Br)ccc1O [Example 2, 5-Bromosalicylaldehyde thiosemicarbazone]
IC50 [1]: 2000 to 5000 nM
IC50 (CDK5 complexed with p25): 500 to 2000 nM

NC(=O)N/N=C/c1cc(Br)ccc1O [Example 3, 5-Bromosalicylaldehyde semicarbazone hydrochloride]
IC50 [1]: 2000 to 5000 nM
IC50 (CDK5 complexed with p25): 500 to 2000 nM

NC(=S)N/N=C/c1cc(-c2ccccc2)ccc1O [Example 4, 5-Phenylsalicylaldehyde thiosemicarbazone]
IC50 [1]: 500 to 2000 nM
IC50 (CDK5 complexed with p25): < 500 nM

NC(=O)N/N=C/c1cc(-c2ccccc2)ccc1O [Example 5, 5-Phenylsalicylaldehyde semicarbazone hydrochloride]
IC50 [1]: 500 to 2000 nM
IC50 (CDK5 complexed with p25): < 500 nM

COc1cccc(-c2ccc(O)c(/C=N/NC(N)=S)c2)c1 [Example 6, 5-(3-Methoxyphenyl)salicylaldehyde thiosemicarbazone]
IC50 [1]: 2000 to 5000 nM
IC50 (CDK5 complexed with p25): 2000 to 5000 nM

N#Cc1cccc(-c2ccc(O)c(/C=N/NC(N)=S)c2)c1 [Example 7, 5-(3-Cyanophenyl)salicylaldehyde thiosemicarbazone]
IC50 [1]: > 5000 nM
IC50 (CDK5 complexed with p25): 2000 to 5000 nM

NC(=S)N/N=C/c1cc(-c2cccc(CO)c2)ccc1O [Example 8, 5-(3-Hydroxymethylphenyl)salicylaldehyde thiosemicarbazone]
IC50 [1]: > 5000 nM
IC50 (CDK5 complexed with p25): > 5000 nM

NC(=O)N/N=C/c1cc(-c2cccc(CO)c2)ccc1O [Example 9, 5-(3-Hydroxymethylphenyl)salicylaldehyde semicarbazone hydrochloride]
IC50 [1]: 2000 to 5000 nM
IC50 (CDK5 complexed with p25): 500 to 2000 nM

NC(=S)N/N=C/c1cc(-c2ccc(CO)cc2)ccc1O [Example 10, 5-(4-Hydroxymethylphenyl)salicylaldehyde thiosemicarbazone]
IC50 [1]: > 5000 nM
IC50 (CDK5 complexed with p25): > 5000 nM

NC(=S)N/N=C/c1cc(-c2ccc([N+](=O)[O-])cc2)ccc1O [Example 11, 5-(4-Nitrophenyl)salicylaldehyde thiosemicarbazone]
IC50 [1]: > 5000 nM
IC50 (CDK5 complexed with p25): 2000 to 5000 nM

COC(=O)c1cccc(-c2ccc(O)c(/C=N/NC(N)=S)c2)c1 [Example 12, 5-(3-Methoxycarbonylphenyl)salicylaldehyde thiosemicarbazone]
IC50 [1]: > 5000 nM
IC50 (CDK5 complexed with p25): 500 to 2000 nM

COC(=O)c1cccc(-c2ccc(O)c(/C=N/NC(N)=O)c2)c1 [Example 13, 5-(3-Methoxycarbonylphenyl)salicylaldehyde semicarbazone hydrochloride]
IC50 [1]: 2000 to 5000 nM
IC50 (CDK5 complexed with p25): > 5000 nM

COc1ccc(-c2ccc(O)c(/C=N/NC(N)=S)c2)cc1F [Example 14, 5-(3-Fluoro-4-methoxyphenyl)salicylaldehyde thiosemicarbazone]
IC50 [1]: 2000 to 5000 nM
IC50 (CDK5 complexed with p25): 500 to 2000 nM

NC(=S)N/N=C/c1cc(-c2cccc(F)c2)ccc1O [Example 15, 5-(3-Fluorophenyl)salicylaldehyde thiosemicarbazone]
IC50 [1]: 500 to 2000 nM
IC50 (CDK5 complexed with p25): 500 to 2000 nM

NC(=S)N/N=C/c1cc(-c2ccc(F)cc2)ccc1O [Example 16, 5-(4-Fluorophenyl)salicylaldehyde thiosemicarbazone]
IC50 [1]: 2000 to 5000 nM
IC50 (CDK5 complexed with p25): 500 to 2000 nM

NC(=S)N/N=C/c1cc(-c2cccc(C(=O)O)c2)ccc1O [Example 17, 5-(3-Carboxyphenyl)salicylaldehyde thiosemicarbazone]
IC50 [1]: 500 to 2000 nM
IC50 (CDK5 complexed with p25): 2000 to 5000 nM

NC(=O)N/N=C/c1cc(-c2cccc(C(=O)O)c2)ccc1O [Example 18, 5-(3-Carboxyphenyl)salicylaldehyde semicarbazone hydrochloride]
IC50 [1]: 500 to 2000 nM
IC50 (CDK5 complexed with p25): < 500 nM

NC(=S)N/N=C/c1cc(-c2ccc(C(=O)O)cc2)ccc1O [Example 19, 5-(4-Carboxyphenyl)salicylaldehyde thiosemicarbazone]
IC50 [1]: > 5000 nM
IC50 (CDK5 complexed with p25): < 500 nM

NC(=S)N/N=C/c1cc(-c2cccc(O)c2)ccc1O [Example 20, 5-(3-Hydroxyphenyl)salicylaldehyde thiosemicarbazone]
IC50 [1]: 500 to 2000 nM
IC50 (CDK5 complexed with p25): < 500 nM

NC(=S)N/N=C/c1cc(-c2ccc(O)cc2)ccc1O [Example 21, 5-(4-Hydroxyphenyl)salicylaldehyde thiosemicarbazone]
IC50 [1]: < 500 nM
IC50 (CDK5 complexed with p25): < 500 nM

NC(=S)N/N=C/c1cc(-c2ccc(O)cc2O)ccc1O [Example 27, 5-(2,4-Dihydroxyphenyl)salicylaldehyde thiosemicarbazone]
IC50 [1]: < 500 nM
IC50 (CDK5 complexed with p25): < 500 nM

NC(=S)N/N=C/c1cc(-c2ccc(O)cc2)c(O)cc1O [Example 28, 4-Hydroxy-5-(4-hydroxyphenyl)salicylaldehyde thiosemicarbazone]
IC50 [1]: 500 to 2000 nM
IC50 (CDK5 complexed with p25): 2000 to 5000 nM

NC(=O)N/N=C/c1cc(-c2ccc(O)cc2)c(O)cc1O [Example 29, 4-Hydroxy-5-(4-hydroxyphenyl)salicylaldehyde semicarbazone hydrochloride]
IC50 [1]: 500 to 2000 nM
IC50 (CDK5 complexed with p25): > 5000 nM

NC(=S)N/N=C/c1cc(-c2ccncc2)ccc1O [Example 30, 5-(4-Pyridyl)salicylaldehyde thiosemicarbazone]
IC50 [1]: 2000 to 5000 nM
IC50 (CDK5 complexed with p25): < 500 nM

NC(=S)N/N=C/c1cc(-c2cccnc2)ccc1O [Example 31, 5-(3-Pyridyl)salicylaldehyde thiosemicarbazone]
IC50 [1]: 500 to 2000 nM
IC50 (CDK5 complexed with p25): < 500 nM

NC(=S)N/N=C/c1cc(-c2cncnc2)ccc1O [Example 32, 5-(5-Pyrimidyl)salicylaldehyde thiosemicarbazone]
IC50 [1]: 2000 to 5000 nM
IC50 (CDK5 complexed with p25): 2000 to 5000 nM

NC(=S)N/N=C/c1cc(-c2cccs2)ccc1O [Example 33, 5-(2-Thienyl)salicylaldehyde thiosemicarbazone]
IC50 [1]: < 500 nM
IC50 (CDK5 complexed with p25): 500 to 2000 nM

NC(=S)N/N=C/c1cc(-c2ccsc2)ccc1O [Example 34, 5-(3-Thienyl)salicylaldehyde thiosemicarbazone]
IC50 [1]: < 500 nM
IC50 (CDK5 complexed with p25): 500 to 2000 nM

NC(=S)N/N=C/c1cc(-c2ccc(Cl)s2)ccc1O [Example 35, 5-[2-(5-Chloro-thienyl)]salicylaldehyde thiosemicarbazone]
IC50 [1]: 500 to 2000 nM
IC50 (CDK5 complexed with p25): > 5000 nM

COC(=O)/C=C/c1ccc(O)c(/C=N/NC(N)=S)c1 [Example 37, Methyl (3-formyl-4-hydroxy)cinnamate, thiosemicarbazone]
IC50 [1]: > 5000 nM
IC50 (CDK5 complexed with p25): 500 to 2000 nM

NC(=S)N/N=C/c1cc(/C=C/C(=O)O)ccc1O [Example 38, 3-Formyl-4-hydroxycinnamic acid, thiosemicarbazone]
IC50 [1]: < 500 nM
IC50 (CDK5 complexed with p25): < 500 nM

NC(=S)N/N=C/c1cc(CCC(=O)O)ccc1O [Example 40, 3-(3-Formyl-4-hydroxyphenyl)propionic acid, thiosemicarbazone]
IC50 [1]: < 500 nM
IC50 (CDK5 complexed with p25): < 500 nM

NC(=O)N/N=C/c1c(O)ccc2ccccc12 [Example 41, 2-[(2-Hydroxy-1-naphthyl)methylidene]hydrazine-1-carbamide hydrochloride]
IC50 [1]: < 500 nM
IC50 (CDK5 complexed with p25): < 500 nM

NC(=S)N/N=C/c1c(O)ccc2ccccc12 [Example 42, 2-[(2-Hydroxy-1-naphthyl)methylidene]hydrazine-1-carbothioamide]
IC50 [1]: < 500 nM
IC50 (CDK5 complexed with p25): < 500 nM

NC(=S)N/N=C/c1cc2ccc(O)cc2cc1O [Example 43]
IC50 [1]: < 500 nM
IC50 (CDK5 complexed with p25): < 500 nM

Nc1nccc(-c2c(O)ccc3ccccc23)n1 [Example 46, 2-Amino-4-[1-(2-hydroxynaphthyl)]pyrimidine]
IC50 [1]: > 5000 nM
IC50 (CDK5 complexed with p25): 2000 to 5000 nM

Cc1cc(-c2cc(-c3ccc(O)cc3)ccc2O)nc(N)n1 [Example 47, 3-(2-Amino-6-methyl-pyrimidin-4-yl)-biphenyl-4,4′-diol]
IC50 [1]: < 500 nM
IC50 (CDK5 complexed with p25): < 500 nM

Nc1ccc(-c2cc(-c3ccc(O)cc3)ccc2O)nc1 [Example 48, 3-(5-Amino-pyridin-2-yl)-biphenyl-4,4′-diol]
IC50 [1]: < 500 nM
IC50 (CDK5 complexed with p25): < 500 nM

Nc1cccc(-c2cc(-c3ccc(O)cc3)ccc2O)n1 [Example 49, 3-(6-Amino-pyridin-2-yl)-biphenyl-4,4′-diol]
IC50 [1]: < 500 nM
IC50 (CDK5 complexed with p25): < 500 nM

COc1cc(-c2cc(-c3ccc(O)cc3)ccc2O)nc(N)n1 [Example 50, 3-(2-Amino-6-methoxy-pyrimidin-4-yl)-biphenyl-4,4′-diol]
IC50 [1]: < 500 nM
IC50 (CDK5 complexed with p25): < 500 nM

Nc1cnc(-c2cc(-c3ccc(O)cc3)ccc2O)nc1N [Example 51, 3-(4,5-Diamino-pyrimidin-2-yl)-biphenyl-4,4′-diol]
IC50 [1]: < 500 nM
IC50 (CDK5 complexed with p25): < 500 nM

Nc1cc(-c2cc(-c3ccc(O)cc3)ccc2O)nc(N)n1 [Example 52, 3-(2,6-Diamino-pyrimidin-4-yl)-biphenyl-4,4′-diol]
IC50 [1]: < 500 nM
IC50 (CDK5 complexed with p25): < 500 nM

Cc1cc(-c2cc(-c3ccnc(N)n3)ccc2O)nc(N)n1 [Example 72]
IC50 [1]: < 500 nM

Nc1nccc(-c2ccc(O)c(-c3cc(Cl)nc(N)n3)c2)n1 [Example 73, 2-(2-Amino-4-chloro-pyrimidin-6-yl)-4-(2-aminopyrimidin-4-yl)-phenol]
IC50 [1]: < 500 nM

Nc1cc(-c2cc(-c3ccnc(N)n3)ccc2O)nc(N)n1 [Example 74, 2-(2,4-Diamino-pyrimidin-6-yl)-4-(2-aminopyrimidin-4-yl)-phenol]
IC50 [1]: < 500 nM

Nc1nc(-c2cc(-c3ccc(O)cc3)ccc2O)cc(N2CCCC2CO)n1 (stereo not drawn) [Example 79, 3-[2-Amino-6-(2R-hydroxymethyl-pyrrolidin-1-yl)-pyrimidin-4-yl]-biphenyl-4.4′-diol]
IC50 [1]: < 500 nM
